{
  "source": "patent US5143906A",
  "about": "“Kedarcidin antitumor chromophore and pharmaceutical composition containing same” (Bristol-Myers Squibb Company, priority 1991, dated 1992)",
  "key": {"[1]": {"test_system": "iv implanted P388 leukemia", "experiment": "Antitumor activity against iv implanted P388 leukemia", "type": "in vivo, murine (CDF1 mice)", "excerpt": "(§1) The P388 tumor was maintained in ascitic form in DBA/2 mice. Experimental tumor models used CDF^1 mice implanted via the intraperitoneal or intravenous route with 1×10^6 leukemia cells on day 0 and dosed with drugs according to the indicated route and schedule. Mice were weighed on day 0 and on day 5 or 6. Weight loss of 20% or greater was an indicator of drug toxicity. Each dose group consisted of 6 mice with 10 mice in the untreated control group. The dosing schedule was Q1DX1;1. Death checks were performed daily and the median life span of each group determined. […] Experiments were terminated on or about day 30."}, "[2]": {"test_system": "ip implanted P388 leukemia", "experiment": "Antitumor activity against ip implanted P388 leukemia", "type": "in vivo, murine (CDF1 mice)", "excerpt": "as §1"}},
  "data": [
    {"smiles": "COc1c(OC(C)C)cc2cc(O)c(C(=O)N[C@@H]3CC(=O)OC[C@@H](O[C@H]4C[C@H](O)[C@H](N(C)C)[C@H](C)O4)/C4=C/C#C[C@@H]5O[C@]56C(=C[C@H](Oc5ccc3nc5Cl)[C@@H]6O[C@H]3C[C@@](C)(O)[C@@H](O)[C@H](C)O3)C#C4)cc2c1OC", "note": "[Kedarcidin chromophore]", "values": [
      {"measurement": "% T/C", "setting": "[1]; Exp. 8305, 0.125 mg/kg/dose", "result": 186, "unit": "%"},
      {"measurement": "Av. wgt. change", "setting": "[1]; Exp. 8305, 0.125 mg/kg/dose", "result": -0.3, "unit": "g"},
      {"measurement": "Med. surv. time", "setting": "[1]; Exp. 8305, 0.125 mg/kg/dose", "result": 13.0},
      {"measurement": "No. of mice alive on d 5", "setting": "[1]; Exp. 8305, 0.125 mg/kg/dose", "result": "6/6"},
      {"measurement": "% T/C", "setting": "[1]; Exp. 8305, 0.25 mg/kg/dose", "result": 214, "unit": "%"},
      {"measurement": "Av. wgt. change", "setting": "[1]; Exp. 8305, 0.25 mg/kg/dose", "result": -0.8, "unit": "g"},
      {"measurement": "Med. surv. time", "setting": "[1]; Exp. 8305, 0.25 mg/kg/dose", "result": 15.0},
      {"measurement": "No. of mice alive on d 5", "setting": "[1]; Exp. 8305, 0.25 mg/kg/dose", "result": "6/6"},
      {"measurement": "% T/C", "setting": "[1]; Exp. 8305, 0.5 mg/kg/dose", "result": 107, "unit": "%"},
      {"measurement": "Av. wgt. change", "setting": "[1]; Exp. 8305, 0.5 mg/kg/dose", "result": -2.9, "unit": "g"},
      {"measurement": "Med. surv. time", "setting": "[1]; Exp. 8305, 0.5 mg/kg/dose", "result": 7.5},
      {"measurement": "No. of mice alive on d 5", "setting": "[1]; Exp. 8305, 0.5 mg/kg/dose", "result": "6/6"},
      {"measurement": "% T/C", "setting": "[1]; Exp. 8305, 1 mg/kg/dose", "result": "TOX"},
      {"measurement": "Med. surv. time", "setting": "[1]; Exp. 8305, 1 mg/kg/dose", "result": "TOX"},
      {"measurement": "No. of mice alive on d 5", "setting": "[1]; Exp. 8305, 1 mg/kg/dose", "result": "0/6"},
      {"measurement": "% T/C", "setting": "[1]; Exp. 8305, 2 mg/kg/dose", "result": "TOX"},
      {"measurement": "Med. surv. time", "setting": "[1]; Exp. 8305, 2 mg/kg/dose", "result": "TOX"},
      {"measurement": "No. of mice alive on d 5", "setting": "[1]; Exp. 8305, 2 mg/kg/dose", "result": "0/6"},
      {"measurement": "% T/C", "setting": "[1]; Exp. 8305, 4 mg/kg/dose", "result": "TOX"},
      {"measurement": "Med. surv. time", "setting": "[1]; Exp. 8305, 4 mg/kg/dose", "result": "TOX"},
      {"measurement": "No. of mice alive on d 5", "setting": "[1]; Exp. 8305, 4 mg/kg/dose", "result": "0/6"},
      {"measurement": "optimal dose", "setting": "[1]; Exp. 8305, iv one day after tumor implant", "result": 0.25, "unit": "mg/kg/inj"},
      {"measurement": "% T/C", "setting": "[1]; Exp. 8328, 0.125 mg/kg/dose", "result": 186, "unit": "%"},
      {"measurement": "Av. wgt. change", "setting": "[1]; Exp. 8328, 0.125 mg/kg/dose", "result": -2.5, "unit": "g"},
      {"measurement": "Med. surv. time", "setting": "[1]; Exp. 8328, 0.125 mg/kg/dose", "result": 13.0},
      {"measurement": "No. of mice alive on d 5", "setting": "[1]; Exp. 8328, 0.125 mg/kg/dose", "result": "6/6"},
      {"measurement": "% T/C", "setting": "[1]; Exp. 8328, 0.25 mg/kg/dose", "result": 100, "unit": "%"},
      {"measurement": "Av. wgt. change", "setting": "[1]; Exp. 8328, 0.25 mg/kg/dose", "result": -2.4, "unit": "g"},
      {"measurement": "Med. surv. time", "setting": "[1]; Exp. 8328, 0.25 mg/kg/dose", "result": 7.0},
      {"measurement": "No. of mice alive on d 5", "setting": "[1]; Exp. 8328, 0.25 mg/kg/dose", "result": "6/6"},
      {"measurement": "% T/C", "setting": "[1]; Exp. 8328, 0.5 mg/kg/dose", "result": "TOX"},
      {"measurement": "Med. surv. time", "setting": "[1]; Exp. 8328, 0.5 mg/kg/dose", "result": "TOX"},
      {"measurement": "No. of mice alive on d 5", "setting": "[1]; Exp. 8328, 0.5 mg/kg/dose", "result": "0/6"},
      {"measurement": "% T/C", "setting": "[1]; Exp. 8328, 1.0 mg/kg/dose", "result": "TOX"},
      {"measurement": "Med. surv. time", "setting": "[1]; Exp. 8328, 1.0 mg/kg/dose", "result": "TOX"},
      {"measurement": "No. of mice alive on d 5", "setting": "[1]; Exp. 8328, 1.0 mg/kg/dose", "result": "0/6"},
      {"measurement": "optimal dose", "setting": "[1]; Exp. 8328, iv, Q1DX1;1", "result": 0.125, "unit": "mg/kg/inj"},
      {"measurement": "% T/C", "setting": "[2]; Exp. 8305, 0.125 mg/kg/dose", "result": 145, "unit": "%"},
      {"measurement": "Av. wgt. change", "setting": "[2]; Exp. 8305, 0.125 mg/kg/dose", "result": 0.1, "unit": "g"},
      {"measurement": "Med. surv. time", "setting": "[2]; Exp. 8305, 0.125 mg/kg/dose", "result": 14.5},
      {"measurement": "No. of mice alive on d 5", "setting": "[2]; Exp. 8305, 0.125 mg/kg/dose", "result": "6/6"},
      {"measurement": "% T/C", "setting": "[2]; Exp. 8305, 0.25 mg/kg/dose", "result": 150, "unit": "%"},
      {"measurement": "Av. wgt. change", "setting": "[2]; Exp. 8305, 0.25 mg/kg/dose", "result": -0.4, "unit": "g"},
      {"measurement": "Med. surv. time", "setting": "[2]; Exp. 8305, 0.25 mg/kg/dose", "result": 15.0},
      {"measurement": "No. of mice alive on d 5", "setting": "[2]; Exp. 8305, 0.25 mg/kg/dose", "result": "6/6"},
      {"measurement": "% T/C", "setting": "[2]; Exp. 8305, 0.5 mg/kg/dose", "result": 165, "unit": "%"},
      {"measurement": "Av. wgt. change", "setting": "[2]; Exp. 8305, 0.5 mg/kg/dose", "result": -0.5, "unit": "g"},
      {"measurement": "Med. surv. time", "setting": "[2]; Exp. 8305, 0.5 mg/kg/dose", "result": 16.5},
      {"measurement": "No. of mice alive on d 5", "setting": "[2]; Exp. 8305, 0.5 mg/kg/dose", "result": "6/6"},
      {"measurement": "% T/C", "setting": "[2]; Exp. 8305, 1 mg/kg/dose", "result": 175, "unit": "%"},
      {"measurement": "Av. wgt. change", "setting": "[2]; Exp. 8305, 1 mg/kg/dose", "result": -0.3, "unit": "g"},
      {"measurement": "Med. surv. time", "setting": "[2]; Exp. 8305, 1 mg/kg/dose", "result": 17.5},
      {"measurement": "No. of mice alive on d 5", "setting": "[2]; Exp. 8305, 1 mg/kg/dose", "result": "6/6"},
      {"measurement": "% T/C", "setting": "[2]; Exp. 8305, 2 mg/kg/dose", "result": 105, "unit": "%"},
      {"measurement": "Av. wgt. change", "setting": "[2]; Exp. 8305, 2 mg/kg/dose", "result": -2.2, "unit": "g"},
      {"measurement": "Med. surv. time", "setting": "[2]; Exp. 8305, 2 mg/kg/dose", "result": 10.5},
      {"measurement": "No. of mice alive on d 5", "setting": "[2]; Exp. 8305, 2 mg/kg/dose", "result": "6/6"},
      {"measurement": "% T/C", "setting": "[2]; Exp. 8305, 4 mg/kg/dose", "result": 90, "unit": "%"},
      {"measurement": "Av. wgt. change", "setting": "[2]; Exp. 8305, 4 mg/kg/dose", "result": -3.6, "unit": "g"},
      {"measurement": "Med. surv. time", "setting": "[2]; Exp. 8305, 4 mg/kg/dose", "result": 9.0},
      {"measurement": "No. of mice alive on d 5", "setting": "[2]; Exp. 8305, 4 mg/kg/dose", "result": "6/6"},
      {"measurement": "optimal dose", "setting": "[2]; Exp. 8305, ip one day after tumor implant", "result": 1, "unit": "mg/kg/inj"},
      {"measurement": "% T/C", "setting": "[2]; Exp. 8328, 0.25 mg/kg/dose", "result": 185, "unit": "%"},
      {"measurement": "Av. wgt. change", "setting": "[2]; Exp. 8328, 0.25 mg/kg/dose", "result": -0.4, "unit": "g"},
      {"measurement": "Med. surv. time", "setting": "[2]; Exp. 8328, 0.25 mg/kg/dose", "result": 18.5},
      {"measurement": "No. of mice alive on d 5", "setting": "[2]; Exp. 8328, 0.25 mg/kg/dose", "result": "6/6"},
      {"measurement": "% T/C", "setting": "[2]; Exp. 8328, 0.5 mg/kg/dose", "result": 130, "unit": "%"},
      {"measurement": "Av. wgt. change", "setting": "[2]; Exp. 8328, 0.5 mg/kg/dose", "result": -1.1, "unit": "g"},
      {"measurement": "Med. surv. time", "setting": "[2]; Exp. 8328, 0.5 mg/kg/dose", "result": 13.0},
      {"measurement": "No. of mice alive on d 5", "setting": "[2]; Exp. 8328, 0.5 mg/kg/dose", "result": "6/6"},
      {"measurement": "% T/C", "setting": "[2]; Exp. 8328, 1.0 mg/kg/dose", "result": 90, "unit": "%"},
      {"measurement": "Av. wgt. change", "setting": "[2]; Exp. 8328, 1.0 mg/kg/dose", "result": -2.3, "unit": "g"},
      {"measurement": "Med. surv. time", "setting": "[2]; Exp. 8328, 1.0 mg/kg/dose", "result": 9.0},
      {"measurement": "No. of mice alive on d 5", "setting": "[2]; Exp. 8328, 1.0 mg/kg/dose", "result": "6/6"},
      {"measurement": "% T/C", "setting": "[2]; Exp. 8328, 2.0 mg/kg/dose", "result": "TOX"},
      {"measurement": "Av. wgt. change", "setting": "[2]; Exp. 8328, 2.0 mg/kg/dose", "result": -1.9, "unit": "g"},
      {"measurement": "Med. surv. time", "setting": "[2]; Exp. 8328, 2.0 mg/kg/dose", "result": "TOX"},
      {"measurement": "No. of mice alive on d 5", "setting": "[2]; Exp. 8328, 2.0 mg/kg/dose", "result": "2/6"},
      {"measurement": "optimal dose", "setting": "[2]; Exp. 8328, ip, Q1DX1;1", "result": 0.25, "unit": "mg/kg/inj"}
    ]}
  ]
}
